Reference: ChEMBL document CHEMBL3785074, “Molecular modeling and snake venom phospholipase A2 inhibition by phenolic compounds: Structure-activity relationship” (Eur J Med Chem, 2016)
Active and inactive are the calls of the source. The calls are words filed in the database; no cut-off is given here.

Legend:
[1] = Protective activity against Daboia russellii venom-induced mortality by measuring venom LD50 in Swiss albino mouse at 100 mmol, iv preincubated with venom for 1 hr followed by administration to mouse measured after 24 hrs (reference value: 2.28 ug); assay type: functional, Daboia russelii
[2] = Protective activity against Daboia russellii venom-induced mortality in Swiss albino mouse at 100 mmol, iv preincubated with venom for 1 hr followed by administration to mouse measured after 24 hrs relative to untreated control; assay type: functional, Daboia russelii
[3] = Protective activity against Naja kaouthia venom-induced mortality in Swiss albino mouse at 100 mmol, iv by measuring venom LD50 preincubated with venom for 1 hr followed by administration to mouse measured after 24 hrs (reference value: 2.82 ug); assay type: functional
[4] = Protective activity against Naja kaouthia venom-induced mortality in Swiss albino mouse at 100 mmol, iv preincubated with venom for 1 hr followed by administration to mouse measured after 24 hrs relative to untreated control; assay type: functional
[5] = (§1) Protective activity against Daboia russellii venom-induced hemorrhage in intradermally dosed Swiss albino mouse at 100 mmol assessed as hemorhagic lesion by measuring minimal […] dose preincubated with venom for 1 hr followed by administration to mouse measured after 24 hrs (reference value: 5 ug); assay type: functional, Daboia russelii
[6] = Protective activity against Daboia russellii venom-induced hemorrhage in intradermally dosed Swiss albino mouse at 100 mmol assessed as hemorhagic lesion preincubated with venom for 1 hr followed by administration to mouse measured after 24 hrs relative to untreated control; assay type: functional, Daboia russelii
[7] = Lipophilicity, log P of compound; assay type: physicochemical; settings: octanol/water
[8] = (§2) Protective activity against Daboia russellii venom-induced mortality in Swiss albino mouse at 100 mmol, iv by measuring venom LD50 administered immediately after venom injection measured after 24 hrs (reference value: 2.28ug); assay type: functional, Daboia russelii
[9] = Protective activity against Daboia russellii venom-induced mortality in Swiss albino mouse at 100 mmol, iv administered immediately after venom injection measured after 24 hrs relative to untreated control; assay type: functional, Daboia russelii
[10] = Protective activity against Naja kaouthia venom-induced mortality in Swiss albino mouse at 100 mmol, iv by measuring venom LD50 administered immediately after venom injection measured after 24 hrs (reference value: 2.82 ug); assay type: functional
[11] = Protective activity against Naja kaouthia venom-induced mortality in Swiss albino mouse at 100 mmol, iv administered immediately after venom injection measured after 24 hrs relative to untreated control; assay type: functional
[12] = (§3) Protective activity against Daboia russellii venom-induced hemorrhage in Swiss albino mouse at 100 mmol, iv assessed as hemorhagic lesion by measuring […] administered immediately after venom injection measured after 24 hrs (Rvb =5 ug); assay type: functional, Daboia russelii
[13] = Protective activity against Daboia russellii venom-induced hemorrhage in Swiss albino mouse at 100 mmol, iv assessed as hemorhagic lesion administered immediately after venom injection measured after 24 hrs relative to untreated control; assay type: functional, Daboia russelii
Daboia russelii [14] = assay: Protective activity against Daboia russellii venom-induced mortality in iv dosed Swiss albino mouse administered immediately after venom injection relative to untreated control; assay type: functional, organism-based
[15] = Protective activity against Daboia russellii venom-induced mortality in iv dosed Swiss albino mouse administered 30 mins after venom injection relative to untreated control; assay type: functional, Daboia russelii
[16] = Protective activity against Daboia russellii venom-induced mortality in iv dosed Swiss albino mouse administered 60 mins after venom injection relative to untreated control; assay type: functional, Daboia russelii
Naja kaouthia [17] = assay: Protective activity against Naja kaouthia venom-induced mortality in iv dosed Swiss albino mouse assessed as administered 30 to 60 mins after venom injection; assay type: functional, organism-based
[18] = (§4) Protective activity against Daboia russellii venom-induced defibrinogenation in iv dosed Swiss albino mouse assessed as venom level causing blood coagulation at 100 mmol preincubated with venom for 1 hr followed by administration to mouse relative to untreated; assay type: functional, Daboia russelii
[19] = (§5) Protective activity against Daboia russellii venom-induced defibrinogenation in iv dosed Swiss albino mouse assessed as blood coagulation at 100 mmol administered immediately after venom injection relative to untreated control; assay type: functional, Daboia russelii
Daboia russelii [20] = assay: Protective activity against Daboia russellii venom-induced coagulation in goat plasma assessed as increase in plasma recalcification time at 20 mmol preincubated with venom for 1 hr followed by plasma addition; assay type: functional, cell-free
[21] = Protective activity against Daboia russellii venom-induced defibrinogenation in iv dosed Swiss albino mouse assessed as venom level causing blood coagulation at 100 mmol preincubated with venom for 1 hr followed by administration to mouse (reference value: 2.5 ug); assay type: functional, Daboia russelii
[22] = Protective activity against Daboia russellii venom-induced defibrinogenation in iv dosed Swiss albino mouse assessed as venom level causing blood coagulation at 100 mmol administered immediately after venom injection (reference value: 2.5 ug); assay type: functional, Daboia russelii
Daboia russelii [23] = assay: as §1; assay type: functional
Daboia russelii [24] = assay: as §2; assay type: functional
Daboia russelii [25] = assay: as §3; assay type: functional
Daboia russelii [26] = system: Daboia russelii
Naja kaouthia [27] = system: Naja kaouthia
Naja kaouthia [28] = system: Naja kaouthia; remark: listed apart in the source
Description: Protective activity against Naja kaouthia venom-induced mortality in Swiss albino mouse at 100 mmol, iv by measuring venom LD50 administered immediately after venom injection measured after 24 hrs (Rvb = 2.82 ug)

[29] = Protective activity against Daboia russellii venom-induced mortality by measuring venom LD50 in Swiss albino mouse at 12 mmol, iv preincubated with venom for 1 hr followed by administration to mouse measured after 24 hrs (reference value: 2.28 ug); assay type: functional, Daboia russelii
[30] = Protective activity against Naja kaouthia venom-induced mortality in Swiss albino mouse at 12 mmol, iv by measuring venom LD50 preincubated with venom for 1 hr followed by administration to mouse measured after 24 hrs (reference value: 2.82 ug); assay type: functional
[31] = as §1, with “12” for “100”; assay type: functional, Daboia russelii
[32] = Protective activity against Daboia russellii venom-induced mortality in Swiss albino mouse at 12 mmol, iv by measuring venom LD50 administered immediately after venom injection measured after 24 hrs (reference value: 2.28ug); assay type: functional, Daboia russelii
Naja kaouthia [33] = assay: Protective activity against Naja kaouthia venom-induced mortality in Swiss albino mouse at 12 mmol, iv by measuring venom LD50 administered immediately after venom injection measured after 24 hrs (reference value: 2.82 ug); assay type: functional, organism-based
[34] = Protective activity against Daboia russellii venom-induced hemorrhage in Swiss albino mouse at 12 mmol, iv assessed as hemorhagic lesion by measuring […] administered immediately after venom injection measured after 24 hrs (Rvb =5 ug); assay type: functional, Daboia russelii
[35] = molecular target: T1, Basic phospholipase A2 VRV-PL-VIIIa (Daboia russelii) (UniProt P59071); assay: Inhibition of Daboia russellii venom PLA2 activity assessed as decrease in coagulation time of egg yolk at 20 mmol preincubated with venom for 1 hr followed by egg yolk addition measured after 1 hr
T1 sequence (whole entry): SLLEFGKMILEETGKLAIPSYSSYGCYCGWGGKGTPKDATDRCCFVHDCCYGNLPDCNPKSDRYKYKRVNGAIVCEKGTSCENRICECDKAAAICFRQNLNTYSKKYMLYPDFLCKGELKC

Daboia russelii [36] = assay: as §4; assay type: functional
Daboia russelii [37] = assay: as §5; assay type: functional

COc1ccc(C=O)c(O)c1
LD50 [1]: 22 µg
fold change (FC) [2]: 9.8
LD50 [3]: 9 µg
fold change (FC) [4]: 3.2
MHC [5]: 50 µg
fold change (FC) [6]: 10
logP ([7]; read-out: logP): 3.19
LD50 [8]: 150 µg
fold change (FC) [9]: 3.75
LD50 [10]: 10 µg
fold change (FC) [11]: 2
MHC [12]: 10 µg
fold change (FC) [13]: 2
Activity (Daboia russelii [14]): Active
Activity [15]: 40%
Activity [16]: 10%
Activity (Naja kaouthia [17]): inactive
fold change (FC) [18]: 8.8
fold change (FC) [19]: 1.5
Activity (Daboia russelii [20]): Active
Activity [21]: 22 µg
Activity [22]: 3.5 µg

O=Cc1ccccc1O
MHC (Daboia russelii [23]): inactive
MHC [12]: 10 µg

O=Cc1ccccc1 [BENZALDEHYDE]
MHC (Daboia russelii [23]): inactive
logP ([7]; read-out: logP): 1.47
LD50 (Daboia russelii [24]): inactive
MHC (Daboia russelii [25]): inactive
LD50 (Daboia russelii [26]): inactive
LD50 (Naja kaouthia [27]): inactive
LD50 (Naja kaouthia [28]): inactive

COc1ccc(CO)c(O)c1
LD50 [1]: 22 µg
fold change (FC) [2]: 9.8
LD50 [3]: 9 µg
fold change (FC) [4]: 3.2
MHC [5]: 30 µg
fold change (FC) [6]: 6
LD50 [8]: 150 µg
fold change (FC) [9]: 3.75
LD50 [10]: 10 µg
fold change (FC) [11]: 2
MHC [12]: 5 µg
fold change (FC) [13]: 1
Activity (Daboia russelii [14]): Active
Activity [15]: 40%
Activity [16]: 10%
Activity (Naja kaouthia [17]): inactive
fold change (FC) [18]: 10
fold change (FC) [19]: 1.5
Activity (Daboia russelii [20]): Active
Activity [21]: 25 µg
Activity [22]: 3.5 µg

C=CCOc1ccc(C=O)c(O)c1
LD50 [1]: 22 µg
fold change (FC) [2]: 9.8
LD50 [3]: 9 µg
fold change (FC) [4]: 3.2
MHC [5]: 50 µg
fold change (FC) [6]: 10
LD50 [8]: 150 µg
fold change (FC) [9]: 3.75
LD50 [10]: 10 µg
fold change (FC) [11]: 2
MHC [12]: 10 µg
fold change (FC) [13]: 2
Activity (Daboia russelii [14]): Active
Activity [15]: 40%
Activity (Naja kaouthia [17]): inactive
fold change (FC) [18]: 2
fold change (FC) [19]: 1.5
Activity (Daboia russelii [20]): Active
Activity [21]: 5 µg
Activity [22]: 3.5 µg

COc1cccc(C=O)c1O
LD50 [1]: 25 µg
fold change (FC) [2]: 11.2
LD50 [3]: 9 µg
fold change (FC) [4]: 3.2
MHC [5]: 50 µg
fold change (FC) [6]: 10
logP [7]: 2.39
LD50 [8]: 150 µg
fold change (FC) [9]: 3.75
LD50 [10]: 10 µg
fold change (FC) [11]: 2
MHC [12]: 10 µg
fold change (FC) [13]: 2
Activity (Daboia russelii [14]): Active
Activity [15]: 40%
Activity [16]: 10%
Activity (Naja kaouthia [17]): inactive
fold change (FC) [18]: 10
fold change (FC) [19]: 1.5
Activity (Daboia russelii [20]): Active
Activity [21]: 25 µg
Activity [22]: 3.5 µg

O=[N+]([O-])c1ccc2c(c1)OCO2
MHC (Daboia russelii [23]): inactive
logP ([7]; read-out: logP): 1.47
LD50 (Daboia russelii [24]): inactive
MHC (Daboia russelii [25]): inactive
LD50 (Daboia russelii [26]): inactive
LD50 (Naja kaouthia [27]): inactive
LD50 (Naja kaouthia [28]): inactive

CC(=O)Oc1ccc(C=O)c(O)c1
MHC (Daboia russelii [23]): inactive
logP ([7]; read-out: logP): 0.94
LD50 (Daboia russelii [24]): inactive
MHC (Daboia russelii [25]): inactive
LD50 (Daboia russelii [26]): inactive
LD50 (Naja kaouthia [27]): inactive
LD50 (Naja kaouthia [28]): inactive

CC(=O)Oc1ccccc1C(=O)O [ASPIRIN]
logP ([7]; read-out: logP): 1.24
LD50 [29]: 6.6 µg
LD50 [30]: 3 µg
MHC [31]: 100 µg
LD50 [32]: 50 µg
LD50 (Naja kaouthia [33]): inactive
MHC [34]: 10 µg

COc1cccc(CO)c1O
LD50 [1]: 25 µg
fold change (FC) [2]: 11.2
LD50 [3]: 9 µg
fold change (FC) [4]: 3.2
MHC [5]: 40 µg
fold change (FC) [6]: 8
LD50 [8]: 150 µg
fold change (FC) [9]: 3.75
LD50 [10]: 10 µg
fold change (FC) [11]: 2
MHC [12]: 10 µg
fold change (FC) [13]: 2
Activity (Daboia russelii [14]): Active
Activity [15]: 40%
Activity [16]: 10%
Activity (Naja kaouthia [17]): inactive
fold change (FC) [18]: 10
fold change (FC) [19]: 1.5
Activity (Daboia russelii [20]): Active
inhibition [35]: Active
Activity [21]: 25 µg
Activity [22]: 3.5 µg

CCCCOc1ccc(C=O)c(O)c1
LD50 [1]: 18 µg
fold change (FC) [2]: 8
LD50 [3]: 6 µg
fold change (FC) [4]: 2.1
MHC [5]: 140 µg
fold change (FC) [6]: 8
LD50 [8]: 150 µg
fold change (FC) [9]: 3.75
LD50 [10]: 10 µg
fold change (FC) [11]: 2
MHC [12]: 10 µg
fold change (FC) [13]: 2
Activity (Naja kaouthia [17]): inactive
fold change (FC) [18]: 2.4
fold change (FC) [19]: 1.5
Activity (Daboia russelii [20]): Active
Activity [21]: 6 µg
Activity [22]: 3.5 µg

OCc1cccc(O)c1O
LD50 [1]: 18 µg
fold change (FC) [2]: 8
LD50 [3]: 6 µg
fold change (FC) [4]: 2.1
MHC [5]: 15 µg
fold change (FC) [6]: 3
LD50 [8]: 100 µg
fold change (FC) [9]: 2.5
LD50 [10]: 10 µg
fold change (FC) [11]: 2
MHC [12]: 10 µg
fold change (FC) [13]: 2
Activity (Naja kaouthia [17]): inactive
fold change (FC) (Daboia russelii [36]): inactive
fold change (FC) (Daboia russelii [37]): inactive
Activity (Daboia russelii [20]): Active
Activity [21]: 2.5 µg
Activity [22]: 2.5 µg

O=Cc1ccc(O)cc1O
LD50 [1]: 6 µg
fold change (FC) [2]: 2.6
LD50 [3]: 3 µg
fold change (FC) [4]: 1
MHC [5]: 50 µg
fold change (FC) [6]: 10
logP ([7]; read-out: logP): 1.19
LD50 [8]: 100 µg
fold change (FC) [9]: 2.5
LD50 [10]: 8 µg
fold change (FC) [11]: 1.6
MHC [12]: 5 µg
fold change (FC) [13]: 1
Activity [16]: 10%
Activity (Naja kaouthia [17]): inactive
fold change (FC) (Daboia russelii [36]): inactive
fold change (FC) (Daboia russelii [37]): inactive
Activity (Daboia russelii [20]): Active
Activity [21]: 2.5 µg
Activity [22]: 2.5 µg
